Laboratory results reported in US10463644B2, “Uses of sesquiterpene lactone compounds and their derivatives in drugs preparation” (ACCENDATECH, priority 2013, dated 2019).
Like-named read-outs stand apart in the source and are kept apart here.

How the values were obtained:
[1] = system: IL-1β secreted by synoviocyte; experiment: Content of IL-1β in culture supernatant of synoviocyte of RA model rats given test compound; format: in vivo; conditions: rat RA model, dose 30 mg/kg.2d; normal control 0.16 ± 0.034, NaCl 0.49 ± 0.136
Procedure, shortened: (§1)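 Rat RA model; dosing 30 mg/kg.2d; normal and NaCl control groups. Synoviocyte culture supernatant collected; TNF-α and PGE2 measured by one established method, IL-1β by a separate method.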

[2] = system: PGE2 secreted by synoviocyte; experiment: Content of PGE2 in culture supernatant of synoviocyte of RA model rats given test compound; format: in vivo; conditions: rat RA model, dose 30 mg/kg.2d; normal control 8.34 ± 1.29, NaCl 32.44 ± 10.32
Procedure, shortened: as §1

cancer cells = experiment: Survival rate of cancer cells after test compound is added (flow cytometry, Annexin V-FITC/PI, clinical specimen); format: cell-based, patient; conditions: Homo sapiens, 18 h, read-out: Survival rate (%) All cells (Stem cells and ordinary cells)
Procedure, shortened: (§2)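 Survival was determined in clinical specimens after an 18 h compound treatment, using Annexin V-FITC/PI apoptosis staining and flow cytometry.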

cancer stem cells = experiment: Survival rate of cancer stem cells after test compound is added (flow cytometry, Annexin V-FITC/PI, clinical specimen); format: cell-based, patient; conditions: Homo sapiens, 18 h
Procedure, shortened: as §2

normal cells = experiment: Survival rate of normal cells after test compound is added (flow cytometry, Annexin V-FITC/PI); format: cell-based; conditions: 18 h
Procedure, shortened: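 Steps: density-gradient isolation of mononuclear cells from fresh or cryopreserved clinical samples; 18-hour compound exposure at 1×10^6 cells/mL; staining for stem-cell surface markers, then Annexin V-FITC and PI; flow cytometric apoptosis analysis.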

[3] = Head and neck squamous cell carcinomas
[4] = read-out: Survival rate (%) All cells (Stem cells and ordinary cells)
[5] = read-out: Survival rate (%) Stem cells

With `C=C1CC[C@H]2C(=C)CC[C@H]3C(=C)C(=O)O[C@@H]3[C@@H]12` [Compound 25] the “Content of IL-1β in culture supernatant of synoviocyte (x ± s)” value [1] was 0.39 ± 0.067 ng/mL, the “Content of PGE2 in culture supernatant of synoviocyte (x ± s)” value [2] was 26.48 ± 2.57 ng/mL and the viability at 10 µM (cancer cells; AML) was 47%. It also gave a viability at 20 µM (cancer cells; AML) of 44%, a viability at 10 µM (cancer cells; Brain glioma) of 74% and a viability at 20 µM (cancer cells; Brain glioma) of 58%. It also gave a viability at 10 µM (cancer cells; Brain tumor) of 83%, a viability at 20 µM (cancer cells; Brain tumor) of 73% and a viability at 10 µM (cancer cells; Breast cancer) of 74%. It also gave a viability at 20 µM (cancer cells; Breast cancer) of 65%, a viability at 10 µM (cancer cells; CLL) of 57% and a viability at 20 µM (cancer cells; CLL) of 45%. The viability at 10 µM (cancer cells; CML) was 64%, the viability at 20 µM (cancer cells; CML) was 49% and the viability at 10 µM (cancer cells; Children hepatoblastoma) was 53%. The viability at 20 µM (cancer cells; Children hepatoblastoma) was 47%, the viability at 10 µM (cancer cells; Colon adenocarcinoma) was 55% and the viability at 20 µM (cancer cells; Colon adenocarcinoma) was 49%. The viability at 10 µM (cancer cells; Colorectal cancer) was 76%, the viability at 20 µM (cancer cells; Colorectal cancer) was 66% and the viability at 10 µM (cancer cells; Gastric cancer) was 54%. It also gave a viability at 20 µM (cancer cells; Gastric cancer) of 47%, a viability at 10 µM (cancer cells; Gastrointestinal tumor) of 63% and a viability at 20 µM (cancer cells; Gastrointestinal tumor) of 52%. It also gave a viability at 10 µM (cancer cells; Glioma) of 83%, a viability at 20 µM (cancer cells; Glioma) of 74% and a viability at 10 µM (cancer cells; [3]) of 67%. For the same molecule, the viability at 20 µM (cancer cells; [3]) was 58%, the viability at 10 µM (cancer cells; Laryngeal cancer) was 74% and the viability at 20 µM (cancer cells; Laryngeal cancer) was 64%. It also gave a viability at 10 µM (cancer cells; Liver cancer) of 65%, a viability at 20 µM (cancer cells; Liver cancer) of 54% and a viability at 10 µM (cancer cells; Lung adenocarcinoma) of 57%. It also gave a viability at 20 µM (cancer cells; Lung adenocarcinoma) of 46%, a viability at 10 µM (cancer cells; Lung cancer) of 54% and a viability at 20 µM (cancer cells; Lung cancer) of 37%. The viability at 10 µM (cancer cells; Malignant melanoma) was 81%, the viability at 20 µM (cancer cells; Malignant melanoma) was 66% and the viability at 10 µM (cancer cells; Nasopharynx cancer) was 54%. The viability at 20 µM (cancer cells; Nasopharynx cancer) was 48%, the viability at 10 µM (cancer cells; Ovarian cancer) was 76% and the viability at 20 µM (cancer cells; Ovarian cancer) was 67%. The viability at 10 µM (cancer cells; Pancreatic cancer) was 64%, the viability at 20 µM (cancer cells; Pancreatic cancer) was 48% and the viability at 10 µM (cancer cells; Prostate cancer) was 56%. The viability at 20 µM (cancer cells; Prostate cancer) was 44%, the viability at 10 µM (cancer cells; Retinoblastoma) was 64% and the viability at 20 µM (cancer cells; Retinoblastoma) was 54%. For the same molecule, the viability at 10 µM (cancer cells; Skin cancer) was 66%, the viability at 20 µM (cancer cells; Skin cancer) was 58% and the viability at 10 µM (cancer stem cells; AML) was 35%. It also gave a viability at 20 µM (cancer stem cells; AML) of 26%, a viability at 10 µM (cancer stem cells; Brain glioma) of 62% and a viability at 20 µM (cancer stem cells; Brain glioma) of 47%. The viability at 10 µM (cancer stem cells; Brain tumor) was 72%, the viability at 20 µM (cancer stem cells; Brain tumor) was 66% and the viability at 10 µM (cancer stem cells; Breast cancer) was 66%. For the same molecule, the viability at 20 µM (cancer stem cells; Breast cancer) was 52%, the viability at 10 µM (cancer stem cells; CLL) was 46% and the viability at 20 µM (cancer stem cells; CLL) was 34%. The viability at 10 µM (cancer stem cells; CML) was 57%, the viability at 20 µM (cancer stem cells; CML) was 36% and the viability at 10 µM (cancer stem cells; Children hepatoblastoma) was 44%. For the same molecule, the viability at 20 µM (cancer stem cells; Children hepatoblastoma) was 39%, the viability at 10 µM (cancer stem cells; Colon adenocarcinoma) was 42% and the viability at 20 µM (cancer stem cells; Colon adenocarcinoma) was 35%. The viability at 10 µM (cancer stem cells; Colorectal cancer) was 62%, the viability at 20 µM (cancer stem cells; Colorectal cancer) was 55% and the viability at 10 µM (cancer stem cells; Gastric cancer) was 43%. It also gave a viability at 20 µM (cancer stem cells; Gastric cancer) of 37%, a viability at 10 µM (cancer stem cells; Gastrointestinal tumor) of 54% and a viability at 20 µM (cancer stem cells; Gastrointestinal tumor) of 44%. The viability at 10 µM (cancer stem cells; Glioma) was 71%, the viability at 20 µM (cancer stem cells; Glioma) was 65% and the viability at 10 µM (cancer stem cells; [3]) was 56%. The viability at 20 µM (cancer stem cells; [3]) was 47%, the viability at 10 µM (cancer stem cells; Laryngeal cancer) was 64% and the viability at 20 µM (cancer stem cells; Laryngeal cancer) was 53%. For the same molecule, the viability at 10 µM (cancer stem cells; Liver cancer) was 52%, the viability at 20 µM (cancer stem cells; Liver cancer) was 46% and the viability at 10 µM (cancer stem cells; Lung adenocarcinoma) was 46%. The viability at 20 µM (cancer stem cells; Lung adenocarcinoma) was 34%, the viability at 10 µM (cancer stem cells; Lung cancer) was 42% and the viability at 20 µM (cancer stem cells; Lung cancer) was 29%. It also gave a viability at 10 µM (cancer stem cells; Malignant melanoma) of 62%, a viability at 20 µM (cancer stem cells; Malignant melanoma) of 54% and a viability at 10 µM (cancer stem cells; Nasopharynx cancer) of 45%. For the same molecule, the viability at 20 µM (cancer stem cells; Nasopharynx cancer) was 37%, the viability at 10 µM (cancer stem cells; Ovarian cancer) was 64% and the viability at 20 µM (cancer stem cells; Ovarian cancer) was 55%. For the same molecule, the viability at 10 µM (cancer stem cells; Pancreatic cancer) was 54%, the viability at 20 µM (cancer stem cells; Pancreatic cancer) was 36% and the viability at 10 µM (cancer stem cells; Prostate cancer) was 44%. For the same molecule, the viability at 20 µM (cancer stem cells; Prostate cancer) was 31%, the viability at 10 µM (cancer stem cells; Retinoblastoma) was 55% and the viability at 20 µM (cancer stem cells; Retinoblastoma) was 34%. The viability at 10 µM (cancer stem cells; Skin cancer) was 55%, the viability at 20 µM (cancer stem cells; Skin cancer) was 43% and the viability at 10 µM (normal cells; [4]) was 93%. The viability at 10 µM (normal cells; [5]) was 89%, the viability at 20 µM (normal cells; [4]) was 91% and the viability at 20 µM (normal cells; [5]) was 88%.
